From patent publication US12673945B2, “3-((8-((1H-pyrazol-4-yl)amino)imidazo[1,2-a]pyridin-3-yl)ethinyl)-n-phenylbenzamide derivative, method for preparing same, and pharmaceutical composition containing same as active ingredient for prevention or treatment of cancer” (DAEGU-GYEONGBUK MEDICAL INNOVATION FOUNDATION, priority 2020, dated 2026)

Assays:
Format in all cases: cell-based
KOPM28 cells = assay: human CML cell proliferation inhibition; conditions: 72 hours, Cell Counting Kit-8
Experimental: (§1) In order to evaluate the therapeutic effect of the compound according to the present invention on chronic myelogenous leukemia (CML), the following experiment was performed, and the results are shown in Table 6 below. Inhibitory activity to Bcr-Abl kinase was evaluated through the experiment using TCCS and KOPM28 cells, and inhibitory activity to T315I-Bcr-Abl kinase was evaluated through the experiment using T315I-TCCS and T315I-KOPM28 cells.
(§2) Human chronic myelogenous leukemia (CML) cells used in the experiment were TCCS, T315I-TCCS, KOPM28 and T315I-KOPM28, and the four types of cells were provided by University of Yamanashi.
(§3) Four types of human CML cells were each seeded in 96-well plates at the density of 1×10^4/90 μL/well. A culture solution containing 9 concentrations (0.000256 to 100 μM) of each example compound serially diluted in 5 folds or DMSO (control) were added to the plate (10 μL/well) to a final concentration of 0 to 10 μM. The plate was incubated in a 37° C. CO2 incubator for 72 hours.
(§4) After incubation for 72 hours, the plate treated with the compound was treated with Cell Counting Kit-8 (Dojindo Molecular Technologies, Inc) solution at the concentration of 10 μL/well, and then mixed well. Then, the plate was incubated in a CO2 incubator at 37° C. for 2 hours, and absorbance at 450 nm was measured with a microplate reader. Data were expressed as percentage compared to vehicle treated cells and GI50 values were calculated using GraphPad Prism 8.0 (GraphPad software Inc., San Diego).

T315I-TCCS cells = assay: human CML cell proliferation inhibition; conditions: 72 hours, Cell Counting Kit-8
Experimental: as §1, §2, §3, §4

T315I-KOPM28 cells = assay: human CML cell proliferation inhibition; conditions: 72 hours, Cell Counting Kit-8
Experimental: as §1, §2, §3, §4

TCCS cells = assay: human CML cell proliferation inhibition; conditions: 72 hours, Cell Counting Kit-8
Experimental: as §1, §2, §3, §4

T315I-Bcr-Abl (Ba/F3) = assay: Ba/F3 cell proliferation inhibition; conditions: BaF3; 72 hours, Cell Counting Kit-8
Experimental: as §3, with “[…] lymphocyte cells, Parental (Ba/F3) and T315I-Bcr-Abl (Ba/F3)” for “Four types of human CML cells”, “were” for “were each”, “(0.015” for “(0.000256”, “3” for “5”, “[…])” for “μL/well)”
as §4, with “5.0” for “8.0”, “Diego) […].” for “Diego).”

Parental (Ba/F3) = assay: Ba/F3 cell proliferation inhibition; conditions: BaF3; 72 hours, Cell Counting Kit-8
Experimental: as §3, with “[…] lymphocyte cells, Parental (Ba/F3) and T315I-Bcr-Abl (Ba/F3)” for “Four types of human CML cells”, “were” for “were each”, “(0.015” for “(0.000256”, “3” for “5”, “[…])” for “μL/well)”
as §4, with “5.0” for “8.0”, “Diego) […].” for “Diego).”

Row | Compound | GI50 (KOPM28 cells) [nM] | GI50 (T315I-TCCS cells) [nM] | GI50 (T315I-KOPM28 cells) [nM] | GI50 (TCCS cells) [nM] | GI50 (T315I-Bcr-Abl (Ba/F3)) [nM] | GI50 (Parental (Ba/F3)) [nM]
1 | Cc1cn(-c2cc(NC(=O)c3cc(F)c(C)c(C#Cc4cnc5c(Nc6cnn(C)c6)cccn45)c3)cc(C(C)(C)C#N)c2)cn1 [Example 2, N-(3-(2-cyanopropan-2-yl)-5-(4-methyl-1H-imidazol-1-yl)phenyl)-3-fluoro-4-methyl-5-((8-((1-methyl-1H-pyrazol-4-yl)amino)imidazo[1,2-a]pyridin-3-yl)ethynyl)benzamide] | < 10 | < 10 | 100 | < 10 | < 50 | > 5000
2 | Cc1cn(-c2cc(NC(=O)c3ccc(C)c(C#Cc4cnc5c(Nc6cnn(C)c6)cccn45)c3F)cc(C(C)(C)C#N)c2)cn1 [Example 3, N-(3-(2-cyanopropan-2-yl)-5-(4-methyl-1H-imidazol-1-yl)phenyl)-2-fluoro-4-methyl-3-((8-((1-methyl-1H-pyrazol-4-yl)amino)imidazo[1,2-a]pyridin-3-yl)ethynyl)benzamide] | < 10 | 100 | 100 | < 10 | < 50 | > 5000
3 | Cc1cn(-c2cc(NC(=O)c3cc(F)c(C)c(C#Cc4cnc5c(Nc6cnn(C)c6)cccn45)c3)cc(C(F)(F)F)c2)cn1 [Example 5, 3-fluoro-4-methyl-N-(3-(4-methyl-1H-imidazol-1-yl)-5-(trifluoromethyl)phenyl)-5-((8-((1-methyl-1H-pyrazol-4-yl)amino)imidazo[1,2-a]pyridin-3-yl)ethynyl)benzamide] | 100 | 100 | 100 | 100 | < 50 | > 5000
4 | Cc1cn(-c2cc(NC(=O)c3ccc(C)c(C#Cc4cnc5c(Nc6cnn(C)c6)cccn45)c3F)cc(C(F)(F)F)c2)cn1 [Example 6, 2-fluoro-4-methyl-N-(3-(4-methyl-1H-imidazol-1-yl)-5-(trifluoromethyl)phenyl)-3-((8-((1-methyl-1H-pyrazol-4-yl)amino)imidazo[1,2-a]pyridin-3-yl)ethynyl)benzamide] | 100 | 100 | > 100 | < 10 | 50 to 500 | > 5000
5 | Cc1cc(F)c(C(=O)Nc2cc(Oc3ccncc3)cc(C(F)(F)F)c2)cc1C#Cc1cnc2c(Nc3cnn(C)c3)cccn12 [Example 7, 2-fluoro-4-methyl-5-((8-((1-methyl-1H-pyrazol-4-yl)amino)imidazo[1,2-a]pyridin-3-yl)ethynyl)-N-(3-(pyridin-4-yloxy)-5-(trifluoromethyl)phenyl)benzamide] | < 10 | < 10 | < 10 | < 10 | < 50 | > 5000
6 | Cc1c(F)cc(C(=O)Nc2cc(Oc3ccncc3)cc(C(F)(F)F)c2)cc1C#Cc1cnc2c(Nc3cnn(C)c3)cccn12 [Example 8, 3-fluoro-4-methyl-5-((8-((1-methyl-1H-pyrazol-4-yl)amino)imidazo[1,2-a]pyridin-3-yl)ethynyl)-N-(3-(pyridin-4-yloxy)-5-(trifluoromethyl)phenyl)benzamide] | < 10 | 100 | 100 | < 10 | < 50 | > 5000
7 | Cc1ccc(C(=O)Nc2cc(Oc3ccncc3)cc(C(F)(F)F)c2)c(F)c1C#Cc1cnc2c(Nc3cnn(C)c3)cccn12 [Example 9, 2-fluoro-4-methyl-3-((8-((1-methyl-1H-pyrazol-4-yl)amino)imidazo[1,2-a]pyridin-3-yl)ethynyl)-N-(3-(pyridin-4-yloxy)-5-(trifluoromethyl)phenyl)benzamide] | < 10 | 100 | 100 | < 10 | < 50 | > 5000
8 | Cc1cc(F)c(C(=O)Nc2cc(CN3CCN(CCO)CC3)cc(C(C)(C)C#N)c2)cc1C#Cc1cnc2c(Nc3cnn(C)c3)cccn12 [Example 10, N-(3-(2-cyanopropan-2-yl)-5-((4-(2-hydroxyethyl)piperazin-1-yl)methyl)phenyl)-2-fluoro-4-methyl-5-((8-((1-methyl-1H-pyrazol-4-yl)amino)imidazo[1,2-a]pyridin-3-yl)ethynyl)benzamide] | < 10 | 100 | 100 | < 10 | < 50 | 500 to 5000
9 | Cc1c(F)cc(C(=O)Nc2cc(CN3CCN(CCO)CC3)cc(C(C)(C)C#N)c2)cc1C#Cc1cnc2c(Nc3cnn(C)c3)cccn12 [Example 11, N-(3-(2-cyanopropan-2-yl)-5-((4-(2-hydroxyethyl)piperazin-1-yl)methyl)phenyl)-3-fluoro-4-methyl-5-((8-((1-methyl-1H-pyrazol-4-yl)amino)imidazo[1,2-a]pyridin-3-yl)ethynyl)benzamide] | < 10 | < 10 | 100 | < 10 | < 50 | > 5000
10 | Cc1ccc(C(=O)Nc2cc(CN3CCN(CCO)CC3)cc(C(C)(C)C#N)c2)c(F)c1C#Cc1cnc2c(Nc3cnn(C)c3)cccn12 [Example 12, N-(3-(2-cyanopropan-2-yl)-5-((4-(2-hydroxyethyl)piperazin-1-yl)methyl)phenyl)-2-fluoro-4-methyl-3-((8-((1-methyl-1H-pyrazol-4-yl)amino)imidazo[1,2-a]pyridin-3-yl)ethynyl)benzamide] | < 10 | 100 | > 100 | < 10 | 50 to 500 | > 5000
11 | Cc1cn(-c2cc(NC(=O)c3cc(C#Cc4cnc5c(Nc6cnn(C)c6)cccn45)c(C)cc3Cl)cc(C(C)(C)C#N)c2)cn1 [Example 13, 2-chloro-N-(3-(2-cyanopropan-2-yl)-5-(4-methyl-1H-imidazol-1-yl)phenyl)-4-methyl-5-((8-((1-methyl-1H-pyrazol-4-yl)amino)imidazo[1,2-a]pyridin-3-yl)ethynyl)benzamide] | < 10 | < 10 | 100 | < 10 | < 50 | > 5000
12 | Cc1cn(-c2cc(NC(=O)c3cc(C#Cc4cnc5c(Nc6cnn(C)c6)cccn45)c(C)cc3Cl)cc(C(F)(F)F)c2)cn1 [Example 14, 2-chloro-4-methyl-N-(3-(4-methyl-1H-imidazol-1-yl)-5-(trifluoromethyl)phenyl)-5-((8-((1-methyl-1H-pyrazol-4-yl)amino)imidazo[1,2-a]pyridin-3-yl)ethynyl)benzamide] | < 10 | 100 | 100 | < 10 | < 50 | > 5000
13 | Cc1cc(Cl)c(C(=O)Nc2cc(Oc3ccncc3)cc(C(F)(F)F)c2)cc1C#Cc1cnc2c(Nc3cnn(C)c3)cccn12 [Example 15, 2-chloro-4-methyl-5-((8-((1-methyl-1H-pyrazol-4-yl)amino)imidazo[1,2-a]pyridin-3-yl)ethynyl)-N-(3-(pyridin-4-yloxy)-5-(trifluoromethyl)phenyl)benzamide] | < 10 | < 10 | < 10 | < 10 | < 50 | > 5000
14 | Cc1cc(Cl)c(C(=O)Nc2cc(CN3CCN(CCO)CC3)cc(C(C)(C)C#N)c2)cc1C#Cc1cnc2c(Nc3cnn(C)c3)cccn12 [Example 16, 2-chloro-N-(3-(2-cyanopropan-2-yl)-5-((4-(2-hydroxyethyl)piperazin-1-yl)methyl)phenyl)-4-methyl-5-((8-((1-methyl-1H-pyrazol-4-yl)amino)imidazo[1,2-a]pyridin-3-yl)ethynyl)benzamide] | < 10 | 100 | 100 | < 10 | 50 to 500 | > 5000
15 | Cc1cc(F)c(C(=O)Nc2cc(-c3ccncc3)cc(C(C)(C)C#N)c2)cc1C#Cc1cnc2c(Nc3cnn(C)c3)cccn12 [Example 17, N-(3-(2-cyanopropan-2-yl)-5-(pyridin-4-yl)phenyl)-2-fluoro-4-methyl-5-((8-((1-methyl-1H-pyrazol-4-yl)amino)imidazo[1,2-a]pyridin-3-yl)ethynyl)benzamide] | < 10 | 100 | 100 | < 10 | 50 to 500 | > 5000
